Assay results published in patent US9901577B2, “Oxoquinazolinyl-butanamide derivatives” (MERCK PATENT GMBH, priority 2013, dated 2018).
Like-named read-outs stand apart in the source and are kept apart here.

Experiments:
TNKS2 = target: T1, TNKS2 (Homo sapiens, UniProt Q9H2K2); assay: TNKS2 activity ELISA (autoparsylation assay); format: biochemical
T1 construct: GST-tagged Tnks-2 (873-1166 aa, prepared in-house); made in house
Procedure: (§1) Description of the TNKS1 and TNKS2 ELISA Assay
(§2) Biochemical Activity Testing of TNKS 1 and 2: Activity ELISA (Autoparsylation Assay)
(§3) For analysis of autoparsylation activity of TNKS 1 and 2 an activity ELISA iss performed: In the first step GST tagged TNKS is captured on a Glutathione coated plate. Then the activity assay with biotinylated NAD is performed in the absence/presence of the compounds. During the enzymatic reaction GST tagged TNKS transfers biotinylated ADP-ribose to itself from biotinylated NAD as co-substrate. For the detection streptavidin-HRP conjugate is added that binds to the biotinylated TNKS and is thereby captured to the plates. The amount of biotinylated resp. autoparsylated TNKS is detected with a luminescence substrate for HRP. The level of the luminescence signal correlates directly with the amount of autoparsylated TNKS and therefore with activity of TNKS.
(§4) The activity ELISA is performed in 384 well Glutathione coated microtiter plates (Express capture Glutathione coated plate, Biocat, Heidelberg, Germany). The plates are pre-equilibrated with PBS. […] The plates are washed 3 times with PBS-Tween-20. The wells are blocked by incubation at room temperature for 20 minutes with 50 μl blocking buffer (PBS, 0.05% Tween-20, 0.5% BSA). Afterwards the plates are washed 3 times with PBS-Tween-20. […] The reaction is stopped by 3 times washing with PBS-Tween-20. For the detection 50 μl of 20 ng/μl Streptavidin, HRP conjugate (MoBiTec, Göttingen, Germany) in PBS/0.05% Tween-20/0.01% BSA are added and the plates are incubated for 30 minutes at room temperature. After three times washing with PBS-Tween-20 50 μl of SuperSignal ELISA Femto Maximum sensitivity substrate solution (ThermoFisherScientific (Pierce), Bonn, Germany) are added. Following a 1 minute incubation at room temperature luminescence signals are measured with an Envision multimode reader (Perkin Elmer LAS Germany GmbH) at 700 nm. The full value used is the inhibitor-free reaction. […] The inhibitory values (IC50) are determined using either the program Symyx Assay Explorer® or Condosseo® from GeneData.

TNKS1 = target: T2, TNKS1 (Homo sapiens, UniProt O95271); assay: TNKS1 activity ELISA (autoparsylation assay); format: biochemical
T2 construct: GST-tagged Tnks-1 (1023-1327 aa, prepared in-house); made in house
Procedure: as §1, §2, §3, §4

Tankyrase [1] = test system: T3, Tankyrase; assay: Measurement of cellular inhibition of Tankyrase (Axin2 level in DLD1 cells, Luminex based assay); format: cell-based; conditions: read-out: EC50 [M] TNKS cellular assay; DLD1 cells, Axin2 increase, 24 hours
T3 construct: TNKS cellular assay; other: DLD1 cells, Axin2 increase, 24 hours
Procedure: (§5) Measurement of Cellular Inhibition of Tankyrase
(§6) Cells of the colon carcinoma cell line DLD1 are plated in 96 well plates with 1.5×10^4 cells per well. Next day, cells are treated with a serial dilution of test compound in seven steps as triplicates with a final DMSO concentration of 0.3%. […] The amount of isolated Axin2 protein is determined in a Luminex^200 machine (Luminex Corporation) according to the manufacturer's instruction by counting 100 events per well. […] As controls cells are treated with solvent alone (neutral control) and with a Tankyrase reference inhibitor IWR-2 (3E-06 M) which refers as control for maximum increase of Axin2. For analysis, the obtained data are normalized against the untreated solvent control and fitted for determination of the EC50 values using the Assay Explorer software (Accelrys).

PARP-1 = target: T4, PARP-1 (Homo sapiens, UniProt P09874); assay: PARP-1 autoparsylation assay (HTRF); format: biochemical; conditions: His-tagged Parp-1, autoparsylation
T4 construct: purchased Enzo Life Sciences GmbH, Lörrach, Germany

DLD-1-cancer cells = conditions: Huang et al., 2009; cited from earlier work
β-catenin = conditions: by increasing the levels of AXIN1 and AXIN2 proteins; cited from earlier work
Tankyrase [2] = assay: Measurement of cellular inhibition of Tankyrase (Axin2 level in DLD1 cells, Luminex based assay); format: cell-based; conditions: for EC50: prior art compounds
Procedure: as §5, §6

[3] = GST-tagged Tnks-2, read-out: IC50 [M] TNKS2 ELISA
[4] = GST-tagged Tnks-1, read-out: IC50 [M] TNKS1 ELISA
[5] = prior art compounds, read-out: IC50 (TNKS1)

T2 sequence (O95271 1023-1327): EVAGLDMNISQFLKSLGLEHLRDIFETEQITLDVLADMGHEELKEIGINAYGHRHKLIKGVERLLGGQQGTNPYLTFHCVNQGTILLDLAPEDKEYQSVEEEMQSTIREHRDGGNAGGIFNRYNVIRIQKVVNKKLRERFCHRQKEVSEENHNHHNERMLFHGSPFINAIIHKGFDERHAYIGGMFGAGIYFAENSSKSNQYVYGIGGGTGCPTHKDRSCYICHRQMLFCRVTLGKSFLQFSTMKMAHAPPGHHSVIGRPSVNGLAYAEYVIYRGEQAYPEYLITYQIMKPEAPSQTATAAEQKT
T4 sequence (P09874 whole entry): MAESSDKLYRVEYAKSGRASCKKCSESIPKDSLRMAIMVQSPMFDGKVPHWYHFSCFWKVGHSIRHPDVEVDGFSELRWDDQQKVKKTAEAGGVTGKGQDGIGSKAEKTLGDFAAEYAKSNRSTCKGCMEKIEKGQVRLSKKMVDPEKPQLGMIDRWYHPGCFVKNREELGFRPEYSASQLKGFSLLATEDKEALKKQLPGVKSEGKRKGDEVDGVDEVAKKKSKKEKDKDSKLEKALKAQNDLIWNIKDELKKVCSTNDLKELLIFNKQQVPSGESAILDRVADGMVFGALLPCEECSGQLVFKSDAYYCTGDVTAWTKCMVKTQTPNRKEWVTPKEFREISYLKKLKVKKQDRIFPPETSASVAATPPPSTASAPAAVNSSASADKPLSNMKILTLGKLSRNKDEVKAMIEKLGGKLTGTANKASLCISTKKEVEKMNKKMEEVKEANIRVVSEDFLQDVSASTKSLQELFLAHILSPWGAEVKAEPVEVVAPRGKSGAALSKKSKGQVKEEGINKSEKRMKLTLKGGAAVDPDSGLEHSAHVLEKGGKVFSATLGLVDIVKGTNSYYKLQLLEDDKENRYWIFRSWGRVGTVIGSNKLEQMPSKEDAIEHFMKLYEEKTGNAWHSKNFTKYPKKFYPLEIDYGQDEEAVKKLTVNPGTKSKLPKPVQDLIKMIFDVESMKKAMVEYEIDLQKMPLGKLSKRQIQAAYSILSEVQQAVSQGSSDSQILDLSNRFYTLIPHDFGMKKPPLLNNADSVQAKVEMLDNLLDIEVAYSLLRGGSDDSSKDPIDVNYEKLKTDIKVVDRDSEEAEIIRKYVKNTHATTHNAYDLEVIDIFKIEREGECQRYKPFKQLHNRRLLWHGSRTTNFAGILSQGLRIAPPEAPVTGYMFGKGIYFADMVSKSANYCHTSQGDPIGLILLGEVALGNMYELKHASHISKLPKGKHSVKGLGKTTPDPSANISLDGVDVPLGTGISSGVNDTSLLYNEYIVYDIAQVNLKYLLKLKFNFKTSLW
T1 sequence (Q9H2K2 873-1166): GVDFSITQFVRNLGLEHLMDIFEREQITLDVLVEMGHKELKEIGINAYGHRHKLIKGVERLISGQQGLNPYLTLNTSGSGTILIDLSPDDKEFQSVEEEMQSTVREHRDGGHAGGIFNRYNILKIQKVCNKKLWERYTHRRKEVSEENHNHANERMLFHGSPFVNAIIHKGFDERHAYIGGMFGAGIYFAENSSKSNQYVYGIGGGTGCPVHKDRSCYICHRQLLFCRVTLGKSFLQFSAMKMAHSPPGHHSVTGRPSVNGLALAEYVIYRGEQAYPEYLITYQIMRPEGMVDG

SMILES: COc1ccc(C(=O)C2CCN(C(=O)CCCc3nc4ccc(F)cc4c(=O)[nH]3)CC2)cc1 [Compound A19, 6-Fluoro-2-{4-[4-(4-methoxy-benzoyl)-piperidin-1-yl]-4-oxo-butyl}-3H-quinazolin-4-one]
- IC50 (TNKS2; [3]): 3.2e-10 M
- IC50 (TNKS1; [4]): 3.1e-10 M
- EC50 (Tankyrase [1]): 8.3e-10 M
- IC50 (PARP-1): 710 nM

SMILES: COc1ccc(C(=O)C2CCN(C(=O)CCCc3nc4ccc(F)cc4c(=O)[nH]3)CC2)cc1F [Compound A20, 6-Fluoro-2-{4-[4-(3-fluoro-4-methoxy-benzoyl)-piperidin-1-yl]-4-oxo-butyl}-3H-quinazolin-4-one]
- IC50 (TNKS2; [3]): 2.5e-10 M
- IC50 (TNKS1; [4]): 2.5e-10 M
- EC50 (Tankyrase [1]): 3.4e-09 M
- IC50 (PARP-1): 960 nM

SMILES: COc1ccc(C(=O)C2CCN(C(=O)CCCc3nc4ccc(F)cc4c(=O)[nH]3)CC2)cn1 [Compound A21, 6-Fluoro-2-{4-[4-(6-methoxy-pyridine-3-carbonyl)-piperidin-1-yl]-4-oxo-butyl}-3H-quinazolin-4-one]
- IC50 (TNKS2; [3]): 6.8e-10 M
- IC50 (TNKS1; [4]): 7.5e-10 M
- EC50 (Tankyrase [1]): 7.8e-09 M
- IC50 (PARP-1): 550 nM

SMILES: N#Cc1ccc(OC2CCN(C(=O)CCCc3nc4ccc(F)cc4c(=O)[nH]3)CC2)cc1 [Compound A22, 4-{1-[4-(6-Fluoro-4-oxo-3,4-dihydro-quinazolin-2-yl)-butyryl]-piperidin-4-yloxy}-benzonitrile]
- IC50 (TNKS2; [3]): 7.6e-08 M
- IC50 (TNKS1; [4]): 1.3e-07 M
- EC50 (Tankyrase [1]): 5.6e-07 M
- IC50 (PARP-1): 640 nM

SMILES: COc1ccc(C(=O)C2CCN(C(=O)CCCc3nc4ccc(F)cc4c(=O)[nH]3)CC2)cc1C [Compound A24, 6-Fluoro-2-{4-[4-(4-methoxy-3-methyl-benzoyl)-piperidin-1-yl]-4-oxo-butyl}-3H-quinazolin-4-one]
- IC50 (TNKS2; [3]): 1.4e-10 M
- IC50 (TNKS1; [4]): 1.6e-10 M
- EC50 (Tankyrase [1]): 1e-09 M
- IC50 (PARP-1): 1000 nM

SMILES: COc1ccc(C(=O)C2CCN(C(=O)CCCc3nc4c(F)cccc4c(=O)[nH]3)CC2)cc1 [Compound A25, 8-Fluoro-2-{4-[4-(4-methoxy-benzoyl)-piperidin-1-yl]-4-oxo-butyl}-3H-quinazolin-4-one]
- IC50 (TNKS2; [3]): 2e-10 M
- IC50 (TNKS1; [4]): 2.8e-10 M
- EC50 (Tankyrase [1]): 2.1e-09 M
- IC50 (PARP-1): 2100 nM

SMILES: COc1ccc(C(=O)C2CCN(C(=O)CCCc3nc4c(F)cccc4c(=O)[nH]3)CC2)cc1F [Compound A26, 8-Fluoro-2-{4-[4-(3-fluoro-4-methoxy-benzoyl)-piperidin-1-yl]-4-oxo-butyl}-3H-quinazolin-4-one]
- IC50 (TNKS2; [3]): 2e-10 M
- IC50 (TNKS1; [4]): 3e-10 M
- EC50 (Tankyrase [1]): 1.3e-09 M
- IC50 (PARP-1): 1300 nM

SMILES: N#Cc1ccc(OC2CCN(C(=O)CCCc3nc4c(F)cccc4c(=O)[nH]3)CC2)cc1 [Compound A27, 4-{1-[4-(8-Fluoro-4-oxo-3,4-dihydro-quinazolin-2-yl)-butyryl]-piperidin-4-yloxy}-benzonitrile]
- IC50 (TNKS2): 8.6e-08 M
- IC50 (TNKS1): 1.5e-07 M
- EC50 (Tankyrase [1]): 4.4e-07 M
- IC50 (PARP-1): 1.3 nM

SMILES: O=C(c1ccc(F)cc1)C1CCN(C(=O)CCCc2nc3c(F)cccc3c(=O)[nH]2)CC1 [Compound A28, 8-Fluoro-2-{4-[4-(4-fluoro-benzoyl)-piperidin-1-yl]-4-oxo-butyl}-3H-quinazolin-4-one]
- IC50 (TNKS2; [3]): 6.2e-10 M
- IC50 (TNKS1; [4]): 8.7e-10 M
- EC50 (Tankyrase [1]): 4.2e-08 M
- IC50 (PARP-1): 3300 nM

SMILES: COc1ccc(C(=O)C2CCN(C(=O)CCCc3nc4c(F)cccc4c(=O)[nH]3)CC2)cc1C [Compound A29, 8-Fluoro-2-{4-[4-(4-methoxy-3-methyl-benzoyl)-piperidin-1-yl]-4-oxo-butyl}-3H-quinazolin-4-one]
- IC50 (TNKS2; [3]): < 1e-10 M
- IC50 (TNKS1; [4]): 1.2e-10 M
- EC50 (Tankyrase [1]): 6.2e-10 M
- IC50 (PARP-1): 2600 nM

SMILES: Nc1ncc(C2CCN(C(=O)CCCc3nc4ccccc4c(=O)[nH]3)CC2)cc1-c1ncccn1 [Compound A30, 2-[4-(6-Amino-5-pyrimidin-2-yl-3′,4′,5′,6-tetrahydro-2′H-[3,4]bipyridinyl-1′-yl)-4-oxo-butyl]-3H-quinazolin-4-one]
- IC50 (TNKS2): 3e-10 M
- IC50 (TNKS1): 4.1e-10 M
- EC50 (Tankyrase [1]): 1.2e-09 M
- IC50 (PARP-1): 670 nM

SMILES: N#Cc1cc(C2CCN(C(=O)CCCc3nc4ccc(F)cc4c(=O)[nH]3)CC2)cnc1N [Compound A31, 6-Amino-1′-[4-(6-fluoro-4-oxo-3,4-dihydro-quinazolin-2-yl)-butyryl]-1′,2′,3′,4′,5′,6′-hexahydro-[3,4]bipyridinyl-5-carbonitrile]
- IC50 (TNKS2; [3]): 9.5e-10 M
- IC50 (TNKS1; [4]): 2.1e-09 M
- EC50 (Tankyrase [1]): 2.9e-09 M
- IC50 (PARP-1): 1400 nM

SMILES: Nc1ncc(C2CCN(C(=O)CCCc3nc4ccc(F)cc4c(=O)[nH]3)CC2)cc1-c1ncccn1 [Compound A32, 2-[4-(6-Amino-5-pyrimidin-2-yl-3′,4′,5′,6′-tetrahydro-2′H-[3,4]bipyridinyl-1′-yl)-4-oxo-butyl]-6-fluoro-3H-quinazolin-4-one]
- IC50 (TNKS2; [3]): 3.4e-10 M
- IC50 (TNKS1; [4]): 3.2e-10 M
- EC50 (Tankyrase [1]): 2.3e-09 M
- IC50 (PARP-1): 600 nM

SMILES: COc1ccc(C(=O)C2CCN(C(=O)CCCc3nc4c(F)cccc4c(=O)[nH]3)CC2)cn1 [Compound A33, 8-Fluoro-2-{4-[4-(6-methoxy-pyridine-3-carbonyl)-piperidin-1-yl]-4-oxo-butyl}-3H-quinazolin-4-one]
- IC50 (TNKS2; [3]): 5.2e-10 M
- IC50 (TNKS1; [4]): 1.3e-09 M
- EC50 (Tankyrase [1]): 1.3e-08 M
- IC50 (PARP-1): 5000 nM

SMILES: N#Cc1cc(C2CCN(C(=O)CCCc3nc4c(F)cccc4c(=O)[nH]3)CC2)cnc1N [Compound A34, 6-Amino-1′-[4-(8-fluoro-4-oxo-3,4-dihydro-quinazolin-2-yl)-butyryl]-1′,2′,3′,4′,5′,6′-hexahydro-[3,4]bipyridinyl-5-carbonitrile]
- IC50 (TNKS2; [3]): 1.6e-09 M
- IC50 (TNKS1; [4]): 3.3e-09 M
- EC50 (Tankyrase [1]): 3.4e-08 M
- IC50 (PARP-1): 2700 nM

SMILES: Nc1ncc(C2CCN(C(=O)CCCc3nc4c(F)cccc4c(=O)[nH]3)CC2)cc1-c1ncccn1 [Compound A35, 2-[4-(6-Amino-5-pyrimidin-2-yl-3′,4′,5′,6′-tetrahydro-2′H-[3,4]bipyridinyl-1′-yl)-4-oxo-butyl]-8-fluoro-3H-quinazolin-4-one]
- IC50 (TNKS2; [3]): 1.6e-10 M
- IC50 (TNKS1; [4]): 4.9e-10 M
- EC50 (Tankyrase [1]): 1.8e-09 M
- IC50 (PARP-1): 1400 nM

SMILES: N#Cc1cc(C2CCN(C(=O)CCCc3nc4ccccc4c(=O)[nH]3)CC2)cnc1N [Compound A36, 6-Amino-1′-[4-(4-oxo-3,4-dihydro-quinazolin-2-yl)-butyryl]-1′,2′,3′,4′,5′,6-hexahydro-[3,4]bipyridinyl-5-carbonitrile]
- IC50 (TNKS2): 1.1e-09 M
- IC50 (TNKS1): 1.9e-09 M
- EC50 (Tankyrase [1]): 2e-08 M
- IC50 (PARP-1): 1100 nM

SMILES: Cn1cc(C(=O)C2CCN(C(=O)CCCc3nc4ccccc4c(=O)[nH]3)CC2)cn1 [Compound A41, 2-{4-[4-(1-Methyl-1H-pyrazole-4-carbonyl)-piperidin-1-yl]-4-oxo-butyl}-3H-quinazolin-4-one]
- IC50 (TNKS2; [3]): 3.3e-10 M
- IC50 (TNKS1; [4]): 5.8e-10 M
- EC50 (Tankyrase [1]): 9e-09 M
- IC50 (PARP-1): 2100 nM

SMILES: Oc1nc(-c2ccc(C(F)(F)F)cc2)nc2c1CSCC2 [XAV939]
- growth of DLD-1-cancer cells (DLD-1-cancer cells): inhibits growth
- Wnt-stimulated accumulation of β-catenin (β-catenin): blocked Wnt-stimulated accumulation of β-catenin

SMILES: O=c1[nH]c(-c2ccc3c(c2)OCO3)nc2ccccc12 [reference compound]
- IC50 (TNKS2; prior art compounds, read-out: IC50 (TNKS2)): 6e-07 M
- IC50 (TNKS1; [5]): 5.9e-07 M
- cellular assay: effect (Tankyrase [2]; at 30 μM, prior art compound): no effect

SMILES: COc1ccc(C(=O)C2CCN(CC(=O)N(Cc3nc4c(c(=O)[nH]3)COCC4)CC3CC3)CC2)cc1 [reference compound]
- IC50 (TNKS1; [5]): 2e-09 M
- EC50 (Tankyrase [2]): 35 nM

SMILES: COc1ccccc1NC(=O)c1ccc(NC(=O)CCc2nc3ccccc3c(=O)[nH]2)cc1 [reference compound]
- IC50 (TNKS1; [5]): 7.4e-09 M
- EC50 (Tankyrase [2]): 320 nM
